Key:
[1] = test system: Rattus norvegicus; assay: In vivo receptor occupancy at SERT in ip dosed rat brain measured 60 mins post dose; assay type: functional; settings: 1 h
[2] = test system: Rattus norvegicus; assay: In vivo receptor occupancy at NET in ip dosed rat brain measured 60 mins post dose; assay type: functional; settings: 1 h
[3] = test system: Rattus norvegicus; assay: In vivo receptor occupancy at DAT in ip dosed rat brain measured 60 mins post dose; assay type: functional; settings: 1 h
[4] = test system: Mus musculus; assay: Reversal of motor depression in po dosed mouse measured at 3rd, 6th and 23rd hr followed by second administration on 24th hr administered as 4 injections for 4 consecutive days measured from day 3 to 10 days post last dose; assay type: functional; settings: read-out: MED
[5] = test system: Mus musculus; assay: Reversal of ptosis in po dosed mouse measured at 3rd, 6th and 23rd hr followed by second administration on 24th hr administered as 4 injections for 4 consecutive days measured from day 3 to 10 days post last dose; assay type: functional
[6] = target: T1, Sodium-dependent dopamine transporter (Homo sapiens, UniProt Q01959); assay: Inhibition of DAT (unknown origin) assessed as reduction of [3H]-DA re-uptake
T1 sequence (Q01959 whole entry): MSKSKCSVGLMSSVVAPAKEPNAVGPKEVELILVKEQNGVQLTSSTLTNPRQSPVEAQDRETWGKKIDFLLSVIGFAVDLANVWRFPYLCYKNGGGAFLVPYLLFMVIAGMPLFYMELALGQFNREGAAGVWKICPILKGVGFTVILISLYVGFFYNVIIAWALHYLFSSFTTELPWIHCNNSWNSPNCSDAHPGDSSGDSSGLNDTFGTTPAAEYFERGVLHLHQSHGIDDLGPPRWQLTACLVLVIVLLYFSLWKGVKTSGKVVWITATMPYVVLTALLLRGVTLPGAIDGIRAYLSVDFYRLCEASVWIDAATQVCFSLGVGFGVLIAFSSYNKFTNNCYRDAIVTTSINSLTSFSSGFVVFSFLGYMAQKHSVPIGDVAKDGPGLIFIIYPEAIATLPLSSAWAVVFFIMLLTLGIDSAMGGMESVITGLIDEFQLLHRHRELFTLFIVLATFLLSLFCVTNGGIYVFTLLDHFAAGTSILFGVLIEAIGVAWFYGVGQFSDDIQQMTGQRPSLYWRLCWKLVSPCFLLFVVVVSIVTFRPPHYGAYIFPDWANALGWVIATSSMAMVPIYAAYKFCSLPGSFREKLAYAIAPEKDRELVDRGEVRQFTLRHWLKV

[7] = target: T1, Sodium-dependent dopamine transporter
Description: Binding affinity to DAT (unknown origin)

[8] = Ratio of drug uptake in Sprague-Dawley rat brain to plasma at 1 mg/kg, sc by HPLC analysis; assay type: ADME, organism-based; settings: read-out: BPR
[9] = test system: Rattus norvegicus; assay: In vivo receptor occupancy at SERT in Sprague-Dawley rat at 0.1 mg/kg, sc measured at 1 to 8 hrs post dose; assay type: functional
[10] = test system: Rattus norvegicus; assay: In vivo receptor occupancy at NET in Sprague-Dawley rat at 0.1 mg/kg, sc measured at 1 to 8 hrs post dose; assay type: functional
[11] = test system: Rattus norvegicus; assay: In vivo receptor occupancy at DAT in Sprague-Dawley rat at 0.1 mg/kg, sc measured at 1 to 8 hrs post dose; assay type: functional
[12] = target: Sodium-dependent serotonin transporter (Homo sapiens, UniProt P31645)
Sodium-dependent serotonin transporter, sequence (P31645 whole entry): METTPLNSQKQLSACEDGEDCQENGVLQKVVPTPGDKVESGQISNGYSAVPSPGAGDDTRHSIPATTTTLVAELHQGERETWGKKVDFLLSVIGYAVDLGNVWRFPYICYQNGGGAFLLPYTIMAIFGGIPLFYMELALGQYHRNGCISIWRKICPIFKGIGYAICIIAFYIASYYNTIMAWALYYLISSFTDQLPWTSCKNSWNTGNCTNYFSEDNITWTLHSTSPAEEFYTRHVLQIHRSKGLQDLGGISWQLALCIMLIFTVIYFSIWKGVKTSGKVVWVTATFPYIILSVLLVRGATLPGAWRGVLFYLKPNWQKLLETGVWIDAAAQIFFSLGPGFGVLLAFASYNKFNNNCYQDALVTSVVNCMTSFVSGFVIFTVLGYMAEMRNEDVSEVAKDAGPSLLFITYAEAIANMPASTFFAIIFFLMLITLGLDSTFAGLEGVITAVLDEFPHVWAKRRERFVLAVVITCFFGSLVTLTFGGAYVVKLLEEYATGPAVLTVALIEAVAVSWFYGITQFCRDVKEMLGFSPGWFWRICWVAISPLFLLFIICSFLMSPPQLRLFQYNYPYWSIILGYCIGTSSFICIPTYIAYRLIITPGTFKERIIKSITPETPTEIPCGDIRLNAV
Description: Binding affinity to SERT (unknown origin)

[13] = target: Sodium-dependent noradrenaline transporter (Homo sapiens, UniProt P23975)
Sodium-dependent noradrenaline transporter, sequence (P23975 whole entry): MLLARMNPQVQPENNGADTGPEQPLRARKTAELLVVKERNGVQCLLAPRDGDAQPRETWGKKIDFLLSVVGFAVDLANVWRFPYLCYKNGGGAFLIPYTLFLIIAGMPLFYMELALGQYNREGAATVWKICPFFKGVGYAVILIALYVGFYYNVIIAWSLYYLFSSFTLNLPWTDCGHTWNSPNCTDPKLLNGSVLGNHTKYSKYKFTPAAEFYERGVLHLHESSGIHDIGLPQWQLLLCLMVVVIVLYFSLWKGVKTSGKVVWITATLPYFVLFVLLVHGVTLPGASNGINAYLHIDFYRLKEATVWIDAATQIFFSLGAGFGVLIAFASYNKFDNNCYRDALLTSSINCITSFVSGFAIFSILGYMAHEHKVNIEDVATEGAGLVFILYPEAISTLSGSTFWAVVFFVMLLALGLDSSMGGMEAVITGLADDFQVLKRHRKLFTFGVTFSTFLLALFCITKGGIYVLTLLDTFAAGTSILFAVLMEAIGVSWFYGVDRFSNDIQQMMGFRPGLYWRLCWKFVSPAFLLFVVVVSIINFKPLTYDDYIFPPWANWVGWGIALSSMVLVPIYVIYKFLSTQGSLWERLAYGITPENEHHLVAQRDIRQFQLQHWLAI
Description: Binding affinity to NET (unknown origin)

Clc1ccc([C@]23CNC[C@H]2C3)cc1Cl [AMITIFADINE]
ED50 [1]: 3 mg/kg | ED50 [2]: 19 mg/kg | ED50 [3]: 95 mg/kg | minimal effective dose [4]: 1.6 mg/kg | ED50 [5]: 2.2 mg/kg

CNC[C@H]1C2CCC(C2)[C@@H]1c1ccc2ccccc2c1 (stereo partly drawn)
IC50 [6]: 96 nM

C#Cc1ccc(C2CN3CCCC3c3ccccc32)cc1 (racemic)
Ki [7]: 5.2 nM | Kp [8]: 7.5 | Occ [9]: 94% | Occ [10]: 95% | Occ [11]: 50% | Ki [12]: 0.9 nM | Ki [13]: 16.6 nM

— ChEMBL document CHEMBL4219032, “Triple Reuptake Inhibitors as Potential Therapeutics for Depression and Other Disorders: Design Paradigm and Developmental Challenges” (J Med Chem, 2018)
